Measurements: BindingDB's records for patent US12545673 (TSD Life Sciences, 2026)

Target: Mitogen-activated protein kinase kinase kinase 9 (Homo sapiens, UniProt P80192)
Experiment: Evaluation of Inhibitory Activity of Enzyme Units

Mitogen-activated protein kinase kinase kinase 9, sequence (P80192 whole entry): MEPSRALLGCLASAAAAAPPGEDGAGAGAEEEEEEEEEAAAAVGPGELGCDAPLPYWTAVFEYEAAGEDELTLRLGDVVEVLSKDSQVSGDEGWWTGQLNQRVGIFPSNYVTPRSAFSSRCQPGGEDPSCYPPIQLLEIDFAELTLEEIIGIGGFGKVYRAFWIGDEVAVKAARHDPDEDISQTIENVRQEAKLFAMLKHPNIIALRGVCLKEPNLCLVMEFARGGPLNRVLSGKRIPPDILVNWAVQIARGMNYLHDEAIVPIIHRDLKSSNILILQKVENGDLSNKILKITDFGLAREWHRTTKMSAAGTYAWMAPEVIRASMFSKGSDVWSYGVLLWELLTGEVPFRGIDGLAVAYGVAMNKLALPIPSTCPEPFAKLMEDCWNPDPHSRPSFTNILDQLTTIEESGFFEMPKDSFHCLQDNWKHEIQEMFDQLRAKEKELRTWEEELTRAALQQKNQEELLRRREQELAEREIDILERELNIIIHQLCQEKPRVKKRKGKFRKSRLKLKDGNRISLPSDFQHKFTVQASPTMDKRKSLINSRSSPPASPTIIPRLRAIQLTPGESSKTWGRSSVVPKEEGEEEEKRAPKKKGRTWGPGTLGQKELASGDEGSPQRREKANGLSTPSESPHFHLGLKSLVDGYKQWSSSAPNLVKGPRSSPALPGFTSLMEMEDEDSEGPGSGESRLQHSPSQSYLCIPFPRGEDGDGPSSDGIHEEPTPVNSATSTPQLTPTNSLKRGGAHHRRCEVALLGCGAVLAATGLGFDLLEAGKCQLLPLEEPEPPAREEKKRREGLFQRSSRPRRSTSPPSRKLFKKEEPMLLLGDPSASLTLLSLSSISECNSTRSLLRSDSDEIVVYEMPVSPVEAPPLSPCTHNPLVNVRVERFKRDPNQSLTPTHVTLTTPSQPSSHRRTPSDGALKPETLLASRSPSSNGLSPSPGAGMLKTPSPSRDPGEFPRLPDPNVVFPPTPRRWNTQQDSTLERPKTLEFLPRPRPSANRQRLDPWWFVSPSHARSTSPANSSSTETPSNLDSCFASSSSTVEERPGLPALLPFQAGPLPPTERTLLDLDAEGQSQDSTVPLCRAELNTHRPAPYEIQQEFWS

With `CCS(=O)(=O)N1CC[C@H](Nc2c(Br)cnc3nc(-c4cc(C)n(-c5ccc(OCCN6CCOCC6)cc5)c4C)[nH]c23)C1` [US12545673, Example 4] the IC50 was 56 nM.
